Here are results for two compounds from publication PMC8152971, “Valeriana rigida Ruiz & Pav. Root Extract: A New Source of Caffeoylquinic Acids with Antioxidant and Aldose Reductase Inhibitory Activities” (Foods, 2021).

Data set [1] is described as follows: Hypochlorous acid (HOCl) scavenging assay. Particulars: for IC50: linear regression. As to the method: The HOCl scavenging assay was adapted from a previous study using 1,8-diaminonaphthalene as a fluorescence probe for hypochlorite. […] Next, the fluorescence intensity (λex = 360 ± 20 nm, λem = 460 ± 20 nm) was immediately measured using a microplate fluorescence reader (FLx800; Bio-Tek, Winooski, VT, USA). Trolox (final concentration 25–100 µg/mL) was used as a reference antioxidant.

Data set [2] in a line: ABTS radical scavenging assay. The note with it: Trolox equivalent antioxidant capacity, mean ± SD, n ≥ 3. As to the method: The experiment was conducted as previously described. In brief, 3.5 mM of potassium persulfate aqueous solution was used to prepare 0.2 mM of ABTS diammonium salt. The solution was diluted 10-fold using distilled water and allowed to produce ABTS radicals (ABTS^+) by keeping the solution in the dark for 14 h at room temperature. […] Equation (1) was used to calculate the ABTS^+ scavenging activity (%), where Acontrol is the absorbance of ABTS^+ solution free of samples, Asample is the absorbance of ABTS^+ solution incubated with a sample, Ablank1 is the absorbance of the test sample free of ABTS^+ solution, and Ablank2 is the absorbance of the diluted potassium persulfate solution.

Data set [3] deals with T1, rat lens AR homogenate (aldose reductase) (Rattus norvegicus, UniProt P07943).
T1 construct: the lenses were removed from the eyes, ground in a mortar; from tissue; host or cells: lens of Sprague–Dawley rats
Kind of data set: AR inhibition assay. The format is biochemical, Sprague–Dawley rats. Particulars: for inhibition at 0.098 µM / inhibition at 0.195 µM / inhibition at 0.391 µM: read-out: AR inhibitory Activity Inhibition (%). How it is done: The eyes of 10-week Sprague–Dawley rats (250–280 g) were removed and frozen at −70 °C before use. Thereafter, the lenses were removed from the eyes, ground in a mortar (precooled at −70 °C), and extracted using 0.1 M PBS of pH 6.2 (around 0.5 mL of buffer per two frozen rat lenses).
The AR inhibitory activities of the extract and the separated compounds were determined as described previously. […] Next, the reaction was initiated by adding 20 µL of the substrate (DL-glyceraldehyde dimmer, 25 mM in 0.1 M PBS of pH 7.0), and the values were further measured for 6 min at 340 nm (OD340) using an Epoch microplate spectrophotometer (BioTek Instruments, Winooski, VT, USA). […] The DMSO used for sample preparation was less than 0.4% (v/v) in the reaction system.

Data set [4] can be described thus: DPPH radical scavenging assay. The note with it: Trolox equivalent antioxidant capacity, mean ± SD, n ≥ 3. As to the method:
The experiment was carried out as previously described. […] Thereafter, the absorbance was measured using a microplate reader (EL800, Bio-Tek Instruments, Winooski, VT, USA) at 570 nm.
A general note: The DPPH test is a chemical assay of radical scavenging.

Data set [5] in a line: Oxygen radical absorbance capacity (ORAC) assay. Particulars: Trolox equivalent antioxidant capacity, mean ± SD, n ≥ 3. How it is done:
The oxygen radical absorbance capacity (ORAC) assay was performed as previously described. Briefly, 0. […] Next, 60 µL of AAPH (40 mM) was added to generate peroxyl radicals to initiate the reaction.

The nature of data set [6]: Partition coefficient (K upper/lower) in biphasic CCC solvent systems. The format is physicochemical. As to the method:
The solvent system was screened via HPLC and evaluated according to the partition coefficient (K value) of the target compounds on the principle introduced by Ito [32]. Briefly, four solvent systems comprising EtOAc, n-BuOH, […] solution to 29 mM, and then the corresponding K values of the target compounds under acidic (Kacid) or basic (Kbase) conditions were determined, as previously described: each acidified or basified solvent system was partitioned to upper layer and lower layer. Thereafter, the extract (about 1–2 mg) was prepared in a 1.5 mL tube and dissolved by adding equal volumes (each 500 µL) of the upper layer and lower layers, which were mixed by a vortex mixer and centrifuged for about 20 s using a C1301 Mini Centrifuge (Labnet International, South Korea). Next, the upper and lower phase sample solutions were respectively pipetted (each 200 µL) into a new 1.5 mL-tube and evaporated by nitrogen gas. Each sample residue was redissolved using 200 µL of MeOH and subjected to HPLC analysis with an injection volume of 20 µL. The K value was calculated as K = Aupper/Alower, where Aupper and Alower are the HPLC peak areas of the target component in the upper and lower phases, respectively.

[7] abbreviates: EtOAc/H2O, 1:1, 208 mM formic acid.
Setting [8] is: EtOAc/n-BuOH/H2O, 2:3:5, 30 mM ammonia.
Where [9] appears, read: EtOAc/n-BuOH/H2O, 2:3:5, 208 mM formic acid.
Setting [10] is: EtOAc/n-BuOH/H2O, 3:2:5, 30 mM ammonia.
[11] abbreviates: EtOAc/n-BuOH/H2O, 3:2:5, 208 mM formic acid.
[12] abbreviates: EtOAc/n-BuOH/H2O, 4:1:5, 30 mM ammonia.
[13] abbreviates: EtOAc/n-BuOH/H2O, 4:1:5, 208 mM formic acid.

In general, IC50 refers to the midpoint of a concentration-inhibition curve. As a reminder, the inhibition is the relative decrease from the control value, in per cent.

Marks after values point to notes of the source that are not given here.

`O=C(/C=C/c1ccc(O)c(O)c1)O[C@@H]1C[C@](O)(C(=O)O)C[C@@H](OC(=O)/C=C/c2ccc(O)c(O)c2)[C@H]1O` [3,5-diCQA (5), 3,5-di-O-caffeoylquinic acid]: the results for the “HOCl Scavenging Activity Inhibition (%)” value in data set [1] (3.125 µM), in data set [1] (6.25 µM) and in data set [1] (12.5 µM) were 49.56 ± 1.23%, 56.13 ± 3.01% and 62.86 ± 1.23%, respectively. In data set [1], this compound returned an IC50 of 2930 nM. In addition, the “TE, ABTS” value in data set [2] is 0.89 ± 0.05 ^d µmol Trolox Equivalents Per µmol Compound. In addition, the inhibition at 0.098 µM in data set [3] is 35.4 ± 1.33%. In data set [3], the inhibition at 0.195 µM was 62.3 ± 1.33%. Also, the inhibition at 0.391 µM in data set [3] is 75.6 ± 1.33%. Further, in data set [4], the “TE, DPPH” value was 0.86 ± 0.08 ^c µmol Trolox Equivalents Per µmol Compound. For the same compound, the “TE, ORAC” value in data set [5] was 2.13 ± 0.07 ^b µmol Trolox Equivalents Per µmol Compound. The “K(upper/lower) Value” in data set [6] (EtOAc/H2O, 1:1, 30 mM ammonia) was 0.01; in data set [6] (setting [7]), 7.71; in data set [6] (setting [8]) it was 0.12; in data set [6] (setting [9]), 38.56; in data set [6] (setting [10]), 0.01; in data set [6] (setting [11]), 35.91. Besides, the “K(upper/lower) Value” stood at 0.01 in data set [6] (setting [12]) and 14.23 in data set [6] (setting [13]).

As to `O=C(/C=C/c1ccc(O)c(O)c1)O[C@@H]1[C@H](O)C[C@@](O)(C(=O)O)C[C@H]1OC(=O)/C=C/c1ccc(O)c(O)c1` [4,5-diCQA (6), 4,5-di-O-caffeoylquinic acid], the “HOCl Scavenging Activity Inhibition (%)” value was found to be 48.80 ± 5.62% in data set [1] (3.125 µM), 51.23 ± 2.14% in data set [1] (6.25 µM) and 65.80 ± 4.06% in data set [1] (12.5 µM). Further, the IC50 in data set [1] is 4610 nM; in data set [3] (rat lens AR, read-out: AR inhibitory Activity IC50) it was 230 nM. The “TE, ABTS” value in data set [2] is recorded as 1.22 ± 0.03 ^b µmol Trolox Equivalents Per µmol Compound. In addition, the inhibition at 0.098 µM in data set [3] is 23.7 ± 2.7%. Further, the inhibition at 0.195 µM in data set [3] was determined as 44.4 ± 4.45%. Also, the inhibition at 0.391 µM in data set [3] came to 65.9 ± 2.21%. The “TE, DPPH” value in data set [4] is 1.23 ± 0.07 ^a µmol Trolox Equivalents Per µmol Compound. Also, in data set [5], the “TE, ORAC” value was 3.70 ± 0.34 ^a µmol Trolox Equivalents Per µmol Compound. Also, the “K(upper/lower) Value” in data set [6] (EtOAc/H2O, 1:1, 30 mM ammonia) is recorded as 0.01; in data set [6] (setting [7]) it was 12.24; in data set [6] (setting [8]), 0.13; in data set [6] (setting [9]), 45.95; in data set [6] (setting [10]) it was 0.05; in data set [6] (setting [11]) it was 41.13. Further, the “K(upper/lower) Value” in data set [6] (setting [12]) came out at 0.01; in data set [6] (setting [13]) it was 22.17.
